Columns and labels:
Experiment in all cases: X-ray crystal structure, soaking, […] Å
Assay type in all cases: binding
[1] = molecular target: T1, Chondroitinase ABC I (cABC-I) (Proteus vulgaris, UniProt P59807); details: soaked at 100 mM; pH 7.5; three molecules in active site cleft
T1 construct: native purification from P. vulgaris cells (CSC as inducer); mature monomer, 997 residues; domains 25-234, 235-617, 618-1021
T1 sequence (P59807 25-1021): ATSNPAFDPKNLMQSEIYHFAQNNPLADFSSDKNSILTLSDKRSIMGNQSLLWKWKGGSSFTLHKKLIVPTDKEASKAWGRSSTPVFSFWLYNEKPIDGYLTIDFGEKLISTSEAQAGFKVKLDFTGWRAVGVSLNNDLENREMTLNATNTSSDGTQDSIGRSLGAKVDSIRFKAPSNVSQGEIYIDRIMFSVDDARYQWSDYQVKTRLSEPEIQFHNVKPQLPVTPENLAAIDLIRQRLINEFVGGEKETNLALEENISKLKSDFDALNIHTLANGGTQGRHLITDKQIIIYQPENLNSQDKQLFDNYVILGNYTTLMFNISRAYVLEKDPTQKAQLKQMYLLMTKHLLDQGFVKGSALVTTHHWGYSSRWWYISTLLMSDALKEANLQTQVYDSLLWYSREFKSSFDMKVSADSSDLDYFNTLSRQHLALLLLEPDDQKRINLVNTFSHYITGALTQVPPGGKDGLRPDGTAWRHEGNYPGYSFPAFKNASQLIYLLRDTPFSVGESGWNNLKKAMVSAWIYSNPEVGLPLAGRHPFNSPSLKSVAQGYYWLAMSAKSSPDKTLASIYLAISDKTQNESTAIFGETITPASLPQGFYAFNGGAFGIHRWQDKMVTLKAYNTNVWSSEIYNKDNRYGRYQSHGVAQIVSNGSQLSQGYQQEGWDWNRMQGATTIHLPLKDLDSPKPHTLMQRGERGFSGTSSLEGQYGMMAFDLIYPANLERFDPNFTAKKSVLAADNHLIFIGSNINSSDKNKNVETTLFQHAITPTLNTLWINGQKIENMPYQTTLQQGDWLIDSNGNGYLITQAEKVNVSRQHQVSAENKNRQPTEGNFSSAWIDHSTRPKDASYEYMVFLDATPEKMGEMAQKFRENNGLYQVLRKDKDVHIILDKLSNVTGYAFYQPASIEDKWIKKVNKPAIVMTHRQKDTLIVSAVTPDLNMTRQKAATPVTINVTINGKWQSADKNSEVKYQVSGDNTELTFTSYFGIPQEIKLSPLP

[2] = molecular target: T1, Chondroitinase ABC I (cABC-I); details: soaked at 100 mM; pH 7.5; two molecules in active site cleft
[3] = molecular target: T1, Chondroitinase ABC I (cABC-I); details: soaked at 100 mM; pH 7.5; two molecules in active site cleft; remark: listed apart in the source

## CC(=O)N[C@H]1C(O)O[C@H](CO)[C@H](OS(=O)(=O)O)[C@@H]1O[C@@H]1OC(C(=O)O)=C[C@H](O)[C@H]1O (stereo partly drawn) [ΔDi-4S]
[1]
  X-ray crystal structure, soaking, 1.80 Å: 7EIQ, cABC-I in complex with ΔDi-4S

## CC(=O)N[C@H]1C(O)O[C@H](COS(=O)(=O)O)[C@H](O)[C@@H]1O[C@@H]1OC(C(=O)O)=C[C@H](O)[C@H]1O (stereo partly drawn) [ΔDi-6S]
[2]
  X-ray crystal structure, soaking, 1.92 Å: 7EIR, cABC-I in complex with ΔDi-6S

## CC(=O)N[C@H]1C(O)O[C@H](CO)[C@H](O)[C@@H]1O[C@@H]1OC(C(=O)O)=C[C@H](O)[C@H]1O (stereo partly drawn) [ΔDi-0S]
[3]
  X-ray crystal structure, soaking, 2.50 Å: 7EIS, cABC-I in complex with ΔDi-0S

Reference: PMC8684500, “Substrate specificity of Chondroitinase ABC I based on analyses of biochemical reactions and crystal structures in complex with disaccharides” (Glycobiology, 2021)
